Tests used:
[1] = wn = mass fraction of the nth substance listed; conditions: 101 kPa, Liquid
[2] = mn = molality of the nth substance listed, in mol/kg; conditions: 101 kPa, Liquid

O=C([O-])[C@H](O)[C@@H](O)C(=O)[O-].[Na+].[Na+] [disodium L-tartrate] + O
Conditions	mass density, 298.15 K [kg/m3]	mass density, 308.15 K [kg/m3]	mass density, 318.15 K [kg/m3]	speed of sound, 298.15 K [m/s]	speed of sound, 308.15 K [m/s]	speed of sound, 318.15 K [m/s]	viscosity, 298.15 K [mPa·s]	viscosity, 308.15 K [mPa·s]	viscosity, 318.15 K [mPa·s]
[1], w1 = 0.01986	–	–	–	–	–	–	0.932	0.773	0.644
[1], w1 = 0.03991	–	–	–	–	–	–	0.995	0.824	0.683
[1], w1 = 0.06024	–	–	–	–	–	–	1.06	0.885	0.726
[1], w1 = 0.08009	–	–	–	–	–	–	1.137	0.952	0.782
[1], w1 = 0.09999	–	–	–	–	–	–	1.23	1.02	0.832
[1], w1 = 0.12	–	–	–	–	–	–	1.321	1.098	0.894
[1], w1 = 0.14	–	–	–	–	–	–	1.431	1.184	0.959
[1], w1 = 0.16	–	–	–	–	–	–	1.56	1.278	1.024
[1], w1 = 0.1795	–	–	–	–	–	–	1.706	1.38	1.101
[1], w1 = 0.2007	–	–	–	–	–	–	1.891	1.519	1.215
[1], w1 = 0.2196	–	–	–	–	–	–	2.086	1.669	1.334
[1], w1 = 0.2402	–	–	–	–	–	–	2.301	1.857	1.475
[1], w1 = 0.26	–	–	–	–	–	–	2.563	2.055	1.647
[1], w1 = 0.2806	–	–	–	–	–	–	2.897	2.305	1.846
[2], m1 = 0.0325	1001.45	998.34	994.47	1502	1524.8	1541.3	–	–	–
[2], m1 = 0.0351	1001.8	998.7	994.82	1502.3	1525.2	1541.7	–	–	–
[2], m1 = 0.0405	1002.51	999.4	995.52	1503.1	1526	1542.3	–	–	–
[2], m1 = 0.0552	1004.48	1001.34	997.43	1505.4	1528	1544.3	–	–	–
[2], m1 = 0.0576	1004.79	1001.64	997.72	1505.7	1528.4	1544.6	–	–	–
[2], m1 = 0.0673	1006.08	1002.91	998.99	1507.2	1529.7	1545.9	–	–	–
[2], m1 = 0.0747	1007.06	1003.87	999.92	1508.2	1530.7	1547	–	–	–
[2], m1 = 0.0814	1007.94	1004.73	1000.77	1509.9	1531.6	1547.7	–	–	–
[2], m1 = 0.1365	1015.14	1011.79	1007.83	1517.3	1539.2	1554.9	–	–	–
[2], m1 = 0.2798	1033.29	1029.68	1025.48	1537.5	1558.2	1572.9	–	–	–
[2], m1 = 0.4159	1049.92	1046.11	1041.78	1556.3	1575.8	1589.4	–	–	–
[2], m1 = 0.5661	1067.63	1063.54	1059.16	1576.4	1594.6	1607.3	–	–	–
[2], m1 = 0.7158	1084.68	1080.39	1075.77	1598.6	1615.3	1624.1	–	–	–
[2], m1 = 0.888	1103.52	1098.96	1094.15	1618.5	1633.8	1644	–	–	–
[2], m1 = 1.055	1121.13	1116.46	1111.35	1639.6	1653.6	1662.2	–	–	–
[2], m1 = 1.211	1137	1132.16	1126.7	1659	1671.7	1679.2	–	–	–
[2], m1 = 1.412	1156.69	1151.68	1146.41	1683.6	1694.5	1701.2	–	–	–
[2], m1 = 1.593	1173.71	1168.58	1163.14	1705.1	1714.6	1719.8	–	–	–
[2], m1 = 1.749	1187.9	1182.99	1176.91	1723.3	1732	1734.8	–	–	–
[2], m1 = 2.203	1226.56	1221.08	1215.23	1774	1778.7	1779.7	–	–	–

From the NIST ThermoML archive (doi:10.1021/je050498q)
